One assay has as its system B16f10 melanocytes. In words: Melanin production inhibition. In kind it is cell-based. The following applies: treatment concentration 0.02%; 72 hours. On the procedure:
Samples were diluted in B16f10 melanocytes at each concentration, treated for 72 hours, and cultured, and then, the amount of melanin pigment present in melanocytes was quantified. The melanin production inhibitory rate was calculated in comparison to the total protein amount, and the values thereof were measured as percentage (%) based on the DMSO control (DMEM containing 0% serum) set to 100%.
In order to measure the degree of decrease in the amount of melanin pigment in the Saccharomyces cerevisiae KCTC14780BP fermented product and the fraction containing the yeast polypeptide, the inhibition rate of melanin production was compared upon treatment with the positive control group (Arbutin 200 ppm (Lim Y. J. et al., 2009, Arch Pharm Res.)), the Saccharomyces cerevisiae KCTC14780BP fermented product and the fraction containing the yeast polypeptide (Table 15).

In assay [1] the target is T1, TRPV1 (transient receptor potential vanilloid-1) (Homo sapiens, UniProt Q8NER1).
T1 construct: expressed in transfected cells; host or cells: HEK 293T-TRPV1 cells
Briefly: TRPV1 activity, calcium influx detection assay in HEK 293T-TRPV1 cells. In kind it is cell-based. The following applies: untreated group 83.57.

A further assay relates to Raw 264.7 cells. Briefly: NO production inhibitory ability, LPS-treated cells, NO assay kit. The class given is cell-based. The following applies: positive control, 20 μg/mL, LPS 1 μg/mL, 24 hours. How it is done:
Raw 264.7 cells were diluted for each concentration, treated with 1 μg/mL of LPS, and cultured for 24 hours. The NO production inhibitory ability was evaluated as follows using a NO assay kit (Table 13).
The confirmation of skin soothing and inflammation improvement effects was performed in the same manner as in Example 6-1 (Table 14).

Another assay has as its system human keratinocyte HaCaT. In words: Hyaluronic acid synthesis, Quantikine ELISA Hyaluronan. In kind it is cell-based. The settings on record: positive control, 1 ppm, 72 hours. On the procedure:
Samples were treated with human keratinocyte HaCaT for 72 hours at each concentration. Hyaluronic acid synthesis was compared with the control group (DMEM treatment containing 0% serum) using Quantikine ELISA Hyaluronan from R&D Systems to quantify the moisturizing ability (Table 7).
The confirmation of hyaluronic acid synthesis enhancement effect was performed in the same manner as in Example 4-1 (Table 8).
The confirmation of hyaluronic acid synthesis enhancement effect was performed in the same manner as in Example 4-1 (Table 9).
The confirmation of hyaluronic acid synthesis enhancement effect was performed in the same manner as in Example 4-1 (Table 10).
The confirmation of hyaluronic acid synthesis enhancement effect was performed in the same manner as in Example 4-1 (Table 11).
In general terms: ELISA stands for enzyme-linked immunosorbent assay.

Assay [2] can be described thus: DPPH free radical scavenging. In kind it is biochemical. The settings on record: 0.15 mM DPPH, room temperature, 30 minutes, absorbance at 540 nm. Background: Loss of DPPH colour is used to gauge radical scavenging.
In the next assay the test system is human dermal fibroblast. In words: Collagen synthesis rate, Procollagen Type I C-peptide (PIP) EIA kit. The class given is cell-based. The settings on record: positive control, 48 hours. How it is done: Samples were treated with human dermal fibroblast for 48 hours at each concentration. The collagen synthesis rate was measured using a Procollagen Type I C-peptide (PIP) EIA kit. The collagen synthesis efficacy of the samples was calculated and measured as values in comparison with the negative control group (DMEM containing 0% serum).
In order to confirm the collagen synthesis enhancement effect of the Saccharomyces cerevisiae KCTC14779BP fermented product, the collagen synthesis rate was compared for normal cells, and normal cells treated with TGF-β, Saccharomyces cerevisiae KCTC14779BP fermented product, and normal yeast (Saccharomyces cerevisiae KCTC7296) fermented product (Table 3).
The confirmation of collagen synthesis enhancement effect was performed in the same manner as in Example 3-1, and the collagen synthesis rate was compared for normal cells, and normal cells treated with TGF-β, Saccharomyces cerevisiae KCTC14780BP fermented product, and fraction containing the yeast polypeptide (Table 4).
The confirmation of collagen synthesis enhancement effect was performed in the same manner as in Example 3-1, and the collagen synthesis rate was compared for normal cells, and normal cells treated with TGF-β, Lactobacillus fructivorans KCTC14776BP fermented product, and normal Lactobacillus (Lactobacillus plantarum KCTC3108) fermented product (Table 5).
The confirmation of collagen synthesis enhancement effect was performed in the same manner as in Example 3-1, and the collagen synthesis rate was compared for normal cells, and normal cells treated with TGF-β, Bacillus paramycoides KCTC14777BP fermented product, and normal Bacillus (Bacillus megaterium KCTC3007) fermented product (Table 6).

For the next assay, the system named is loricrin (LOR). In words: Loricrin (LOR) gene expression in TNF-a-treated HaCaT cells, qPCR. The settings on record: Control: TNF-a 10 pg/mL alone; untreated group = 1. The class given is cell-based, human. On the procedure:
After treating HaCaT cells with TNF-a (10 pg/mL) for 3 hours, samples were diluted for each concentration, mixed with TNF-a-treated HaCaT cells, and cultured for 24 hours. The degree of increase in the expression of loricrin (LOR), a major component of the skin barrier, was quantified using qPCR (Table 18).
(In qPCR the cycle at which signal appears reflects the starting amount.)

The text below walks through data of US12611372B2, “Strain and use thereof” (LG HOUSEHOLD & HEALTH CARE LTD., priority 2021, dated 2026).

T1 sequence (Q8NER1 whole entry, species assumed): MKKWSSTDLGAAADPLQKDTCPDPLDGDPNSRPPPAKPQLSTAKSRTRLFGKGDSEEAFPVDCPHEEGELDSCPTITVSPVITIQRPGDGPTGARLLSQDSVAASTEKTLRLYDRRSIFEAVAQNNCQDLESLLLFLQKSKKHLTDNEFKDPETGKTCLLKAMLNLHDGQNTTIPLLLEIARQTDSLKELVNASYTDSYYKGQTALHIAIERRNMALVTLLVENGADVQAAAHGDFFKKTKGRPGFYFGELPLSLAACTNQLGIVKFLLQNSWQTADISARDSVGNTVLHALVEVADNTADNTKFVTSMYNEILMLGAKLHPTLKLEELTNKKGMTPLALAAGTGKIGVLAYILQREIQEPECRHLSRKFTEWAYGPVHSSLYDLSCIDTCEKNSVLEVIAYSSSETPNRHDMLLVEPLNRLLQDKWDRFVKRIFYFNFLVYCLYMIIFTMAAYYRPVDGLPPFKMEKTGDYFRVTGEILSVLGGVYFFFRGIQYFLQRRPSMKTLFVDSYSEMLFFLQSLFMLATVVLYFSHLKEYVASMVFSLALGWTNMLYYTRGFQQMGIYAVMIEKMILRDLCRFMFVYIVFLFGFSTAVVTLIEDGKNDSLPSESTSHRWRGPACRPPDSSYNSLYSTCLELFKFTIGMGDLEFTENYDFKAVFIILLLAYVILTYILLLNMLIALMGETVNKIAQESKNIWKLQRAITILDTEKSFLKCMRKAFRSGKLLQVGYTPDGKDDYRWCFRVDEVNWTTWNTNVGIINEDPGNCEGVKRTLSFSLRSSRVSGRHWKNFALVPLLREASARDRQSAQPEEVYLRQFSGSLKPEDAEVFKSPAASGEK

As to `OC[C@H]1O[C@@H](Oc2ccc(O)cc2)[C@H](O)[C@@H](O)[C@@H]1O` [Arbutin], the “Melanin Production Inhibition (%)” value in the assay with B16f10 melanocytes is 56.4%.

As to `COc1cc(CNC(=O)CCCC/C=C/C(C)C)ccc1O` [Capsaicin], the “TRPV1 Activity (RFU, relative fluorescent unit)” value in assay [1] (10 μM, TRPV1 activity induction) was found to be 101.86 RFU.

Turning to `CNC(=N)NCCC[C@H](N)C(=O)O` [L-NMMA], the “NO production inhibitory ability (% of control)” value with Raw 264.7 cells (Table 13) and with Raw 264.7 cells (Table 14) was 47.9 % of control in each case.

On to `CC1=C(/C=C/C(C)=C/C=C/C(C)=C/C(=O)O)C(C)(C)CCC1` [Retinoic acid], for which the “Hyaluronic Acid Synthesis Rate (% of control)” value in the assay with human keratinocyte HaCaT (Table 7) is 13.6 % of control; in the assay on human keratinocyte HaCaT (Table 8) it was 17.8 % of control; in the assay on human keratinocyte HaCaT (Table 9), 27.6 % of control; in the assay on human keratinocyte HaCaT (Table 10) it was 22.0 % of control; in the assay with human keratinocyte HaCaT (Table 11), 15.4 % of control.

Consider `O=C1O[C@H]([C@@H](O)CO)C(O)=C1O` [Vitamin C], for which, in assay [2], the “IC 50 (%)” value was 0.000606 ± 0.00006%.

As to Capsazepin, the “TRPV1 Activity (RFU, relative fluorescent unit)” value in assay [1] (3 μM, TRPV1 activity inhibition) turned out to be 75.91 RFU.

Consider TGF-β, for which the “Collagen Synthesis Rate (% of control)” value in the assay on human dermal fibroblast (Table 3, 10 ppb, vs negative control (DMEM 0% serum)) was 27.55 % of control; in the assay on human dermal fibroblast (Table 4, 10 ng/mL), 23.92 % of control; with human dermal fibroblast (Table 5, 10 ppb), 24.6 % of control; with human dermal fibroblast (Table 6, 10 ppb), 20.84 % of control.

Turning to TNF-a, the “LOR Gene Expression (Relative mRNA level, of control)” value in the assay on loricrin (LOR) was determined as 0.39.
